Assay results from patent publication US8609712B2, “Purification of progesterone receptor modulators” (Wyeth LLC, priority 0205, dated 2013).
Values after ≈ are worked out from the molar mass of the structure shown.

What was measured:
[1] = Solubility of the isolated salt in NMP / DMPU; type: physicochemical
Method: 6-Bromo-4,4-dimethyl-benzoxazine-2-one (2.59 g) was dissolved in THF (50 mL) at ambient temperature followed by addition of sodium tert-butoxide (0.96 g). The mixture was gently heated until a solution was obtained.
Similarly, 6-bromo-4,4-dimethyl-benzoxazine-2-one (2.55 g) was reacted with lithium tert-butoxide (10 mL of 1M solution in THF).

[2] = physchem; settings: organic solvent or mixture
[3] = Solubility in DMF; settings: solvent DMF

Question: Which “solubility in N-methylpyrrolidone (NMP) and dimethylpyrimidone (DMPU)” value ([1]; solvents heated to about 40 to about 50° C.) does the source give for `CC1(C)OC(=O)Nc2ccc(Br)cc21.[Na]` [6-Bromo-4,4-Dimethyl-Benzoxazine-2-One Sodium Salt] here?
Answer: soluble

Question: With `Cn1c(C#N)ccc1-c1ccc2c(c1)C1(CCCCC1)C(=NC#N)N2` [5′-(5-Cyano-1-methyl-1H-pyrrol-2-yl)spiro[cyclohexane-1,3′-[3H]indol]-2′-ylidenecyanamide] as the molecule, how does the solubility [2] read?
Answer: 3000 µg/mL (≈ 9.11 mM)

Question: With “5′-(5-cyano-1-methyl-1H-pyrrol-2-yl)spiro[cyclohexane-1,3′-[3H]indol]-2′-ylidenecyanamide choline salt” as the molecule, how does the “solubility in DMF” value [3] read?
Answer: 11000 µg/mL

Question: With `CC1(C)OC(=O)Nc2ccc(Br)cc21.[Li]` [6-Bromo-4,4-Dimethyl-Benzoxazine-2-One Lithium Salt] as the molecule, how does the “solubility in dimethylpyrimidone (DMPU)” value ([1]; without heating) read?
Answer: soluble
